This is an account of results in patent US11453667B2, “Pyridone-pyrimidine derivative acting as KRASG12C mutein inhibitor” (MEDSHINE DISCOVERY INC., priority 2018, dated 2022).

Assay [1] relates to human pancreatic cancer x-MIA-PaCa2 cell. Description: In vivo drug efficacy test (3): subcutaneous xenograft tumor model. Also on record: species or system NU/NU mice. The note with it: 50 mg/kg. How it is done:
To evaluate the in vivo efficacy of the test compounds in a subcutaneous xenograft tumor model of human pancreatic cancer x-MIA-PaCa2 cell.
NU/NU mice, female, 6-8 weeks old, weighing 17-20 grams. A total of 100 were required (additional 30% of animals were inoculated). They were provided by Beijing Vital River Science and Technology Co., Ltd. Each mouse was subcutaneously inoculated with 0.2 mL (10×10^6) of x-MIA-PaCa2 cells (plus matrigel, with the volume ratio being 1:1) on the right back. When the average tumor volume reached about 150 mm^3, grouping and administration were performed, and the administration dose was shown in Table 7. The diameter of the tumor was measured with vernier calipers twice a week. The formula for calculating the tumor volume is: V=0.5a×b^2, wherein a and b represent the long and short diameters of the tumor, respectively. The tumor suppressive effect of the compounds was evaluated by TGI (%). TGI (%) reflects the tumor growth inhibition rate. Calculation of TGI (%): TGI (%)=[(1−(average tumor volume at the end of administration in a treatment group−average tumor volume at the beginning of administration in the treatment group))/(average tumor volume at the end of treatment in the solvent control group−average tumor volume at the beginning of treatment in the solvent control group)]×100%.

Assay [2] relates to human non-small cell lung cancer NCI-H358. Description: In vivo drug efficacy test (4): subcutaneous xenograft tumor model. Also on record: species or system BALB/c nude mice. The note with it: for TGI: day 27. How it is done: To evaluate the in vivo efficacy of the test compounds in a subcutaneous xenograft tumor model of human non-small cell lung cancer NCI-H358.
BALB/c nude mice, female, 6-8 weeks old, weighing 18-20 grams. A total of 40 were required. They were provided by Shanghai Lingchang Experimental Animal Co., Ltd ( ? ? ). NCI-H358 tumor cells were resuspended in PBS to prepare a cell suspension with a density of 5×10^7/mL, which was inoculated subcutaneously on the right back of each mouse (0.1 mL, 5×10^6/mouse) to wait for tumor growth. When the average tumor volume reached about 166 mm^3, randomized grouping and administration were performed, and the administration dose was shown in Table 8. The diameter of the tumor was measured with vernier calipers twice a week.
The formula for calculating the tumor volume is: V=0.5a×b^2, wherein a and b represent the long and short diameters of the tumor, respectively. The tumor suppressive effect of the compounds was evaluated by TGI (%). TGI (%) reflects the tumor growth inhibition rate. Calculation of TGI (%): TGI (%)=[(1−(average tumor volume at the end of administration in a treatment group−average tumor volume at the beginning of administration in the treatment group))/(average tumor volume at the end of treatment in the solvent control group−average tumor volume at the beginning of treatment in the solvent control group)]×100%.

The test system of assay [3] is wild-type A375 human malignant melanoma cells. Description: Cell experiment: anti-proliferative activity, CellTiter-Glo, A375. In kind it is cell-based. Conditions: Homo sapiens, A-375, 120 h, 5 days culture. How it is done: This experiment is intended to verify that the compounds of the present invention have an inhibitory effect on the proliferation of NCI-H358 human non-small cell lung cancer cells with KRAS G12C mutation, MIA PaCa2 human pancreatic cancer cells with KRAS G12C mutation and wild-type A375 human malignant melanoma cells.
40 μl of phosphate buffer was added to the peripheral wells of three 384-well microplates respectively, and 40 μl of cell suspension to be tested was added to the other wells of each plate respectively (plate 1: NCI-H358 cell suspension containing 500 NCI-H358 cells; plate 2: MIAPaCa2 cell suspension containing 300 MIAPaCa2 cells; plate 3: A375 cell suspension containing 300 A375 cells). The three cell plates were then placed in a carbon dioxide incubator and incubated overnight. Echo was used to perform a 3-fold gradient dilution of the compounds to be tested, and each compound was diluted with 10 concentration gradients (diluted from 50 μM to 0.003 μM), 100 nl of which was respectively added to the corresponding wells of the cell plates; after dosing, 40 μL of phosphate buffer was added to each well of rows A and P and columns 1 and 24, and then the cell plates were put back to the carbon dioxide incubator for culturing for 5 days. 20 μl of Promega CellTiter-Glo reagent per well was added to the cell plates, which was shaken at room temperature for 10 minutes in the dark to stabilize the luminescence signal. A PerkinElmer Envision multi-label analyzer was used for reading.
Data analysis: IC50 results were analyzed by GraphPad Prism 5.0 software […].

Setting [4] is: 50 mg/kg (0-2 days) + 1.5 mg/kg (3-27 days).

In the case of `C=CC(=O)N1CCN(c2ncnc3c(=O)n(-c4c(N)c(Cl)cc(Cl)c4F)c(C(F)(F)F)cc23)CC1` [Example 49], the “Tumor volume (day 14)” value in assay [1] is on record as 204 mm^3. In addition, the TGI in assay [1] (day 14) was 96.77%; in assay [2] (5 mg/kg) it was 107.25%; in assay [2] (15 mg/kg), 116.27%; in assay [2] (setting [4]) it was 80.92%. The “Tumor volume (day 27)” value in assay [2] (5 mg/kg) is 117 mm^3; in assay [2] (15 mg/kg) it was 56 mm^3; in assay [2] (setting [4]), 295 mm^3. Also, the IC50 in assay [3] came out at 7.32 µM.
